Measurements as given in patent publication EP3290412A1, “HIV-1 NUCLEOCAPSID INHIBITORS” (Università degli Studi di Siena, priority 2016, dated 2018).
Read-outs that look alike come from different tables or passages of the source.

Assays:
[1] = molecular target: T1, full length (1-55) HIV-1 NCp7 (Human immunodeficiency virus type 1 group M subtype B, UniProt P12493); assay: Electromobility Shift Assay (EMSA), competition for ssDNA binding; settings: NCp7 300 nM, M13mp18 ssDNA; positive = >25% inhibition at 100µM
T1 construct: recombinant full length (1-55) HIV-1 NCp7 proteins; made in house
Excerpt: The assay used a recombinant full length (1-55) HIV-1 NCp7 proteins based on the NL4-3 sequence (GenBank accession number AF324493). The protein was expressed and purified as described in [Carteau, S., Gorelick, R. J. & Bushman, F. D. Coupled integration of human immunodeficiency virus type 1 cDNA ends by purified integrase in vitro: stimulation by the viral nucleocapsid protein. Journal of virology 73, 6670-6679 (1999)].
Competition for single-stranded (ss) DNA binding was realized by mixing 1 µL of serial dilutions of NC inhibitors (diluted in DMSO) with 44 µL of NCp7 (300 nM) in a reaction buffer (20 mM Tris-HCl pH 7.4, 2 mM MgCl2, 100 mM NaCl, 1 mM DTT). 5 µL of a 10 ng/µL (4 nM) solution of M13mp18 ssDNA (BayouBiolabs) were then added and the tubes were incubated for 25 minutes at 37 °C. The reaction was terminated by chilling the tubes on ice followed by the addition of 5 µL of a loading buffer (30% glycerol, 0.01% xylene cyanol, 10 mM Tris-HCl pH 7.4). Samples were then resolved on 25 cm-long, 1% (w/v) agarose gels (SeaKem LE Agarose, Lonza) in 0.5x TBE. Gels were run in a Sub-Cell GT cuvette (BioRad) for 18 h at room temperature at 3 V/cm, stained with SybrGold (Molecular Probes) and scanned for fluorescence using a Typhoon 8600 (GE Healthcare). The experiments were performed in triplicate. Competition efficiency was realized by measuring the relative distance in pixels between the unbound ssDNA control, the NCp7-bound ssDNA control and the bound ssDNA for each points of the titration with the ImageQuant software. The IC50 was estimated as the NC inhibitors concentrations for which the bound ssDNA migrated at 50% of the distance separating the bound from the unbound ssDNA.

NC(11-55) = NC(11-55) (Human immunodeficiency virus type 1, UniProt P12493); assay: NC inhibition assay (NC-induced cTAR DNA destabilization, fluorescence); format: biochemical, HIV-1; settings: for inhibition at 100 µM: single point screening, positive = >25% inhibition at 100µM
Excerpt: The NC inhibition assay is based on the nucleic acid chaperone activity of the NC protein. NC destabilizes the secondary structure of cTAR DNA, the complementary sequence of the transactivation response element, which is involved in minus-strand DNA transfer during reverse transcription. In the assay, the cTAR sequence from the HIV-1 Mal strain (Bernacchi et al, J Mol Biol, 2002) is labeled with a dye (Alexa488 fluorophore) and a quencher 4-(4'-dimethylaminophenylazo)benzoic acid (Dabcyl) at its 5' and 3' ends, respectively. In the absence of destabilization, the close proximity of both cTAR ends results in a strong fluorescence quenching of the dye emission by the Dabcyl group. NC(11-55) added to cTAR at a ratio of 10 NC/cTAR melts the bottom of the cTAR stem, which increases the distance between the dye and the quencher and as a result increases the dye fluorescence signal [Shvadchak et al, (2009) Identification by high throughput screening of small compounds inhibiting the nucleic acid destabilization activity of the HIV-1 nucleocapsid protein. Biochimie, 916-923]. NCIs are expected to prevent the NC-induced destabilization of cTAR and thus reverse the NC-induced increase in the fluorescence of the labeled cTAR. The activity of the inhibitor is thus evaluated from the ratio of the fluorescence intensity observed in the presence of NC with the molecule to the one in the absence of the compound.
The doubly labelled cTAR DNA oligonucleotides (55nt) were synthesised and purified by IBA GmbH Nucleic Acids Product Supply (Göttingen, Germany). Extinction coefficient at 260 nm of 5.73 x 10^5 M^-1 cm^-1 was used to determine the concentration of cTAR.
The NC(11-55) peptide (Avilov et al, Antimicrob Agents Chemother, 2012) was synthesized by solid-phase peptide synthesis on a 433A synthesizer (ABI, Foster City, CA) as previously described [De Rocquigny H, (1991) First large scale chemical synthesis of the 72 amino acid HIV-1 nucleocapsid protein NCp7 in an active form. Biochem Biophys Res Commun., 1010-1018]. The peptide was stored lyophilized and was resuspended in water before use. The concentration of peptide was determined by using an extinction coefficient of 5.7 x 10^3 M^-1 cm^-1 at 280 nm. Next, 2.5 molar equivalents of ZnSO4 were added and pH was raised to its final value by adding buffer.
All experiments were performed at 20 °C in 25 mM Tris-HCl (pH 7.5), 30 mM NaCl, and 0.2 mM MgCl2. To evaluate the inhibition activity of compounds on NC-induced cTAR destabilization, cTAR DNA (0.1 µM) was preincubated with 1 µM NC(11-55) (molar ratio NC:cTAR = 10:1) for 15 min at room temperature before addition of compound. For single point screening, all compounds were tested at three final concentrations: 1 µM, 10 µM and 100 µM. For the IC50 determination, inhibition of NC-induced cTAR melting was monitored through addition of increasing concentrations of the selected molecules to the pre-formed NC(11-55)-cTAR complex. After the addition of compound, the mixture was incubated for 15 min at room temperature before the reading. The fluorescence signal was recorded with a plate reader Xenius (SAFAS Monaco) or Fluoromax 3 spectrofluorometer (Horiba Jobin-Yvon), and the excitation and emission wavelengths were 480 and 520 nm, respectively. The spectra were corrected for dilution, buffer fluorescence and screening effect (when it was required). In order to check the occurrence of aggregation, we performed additional reading of absorption with the plate reader Xenius (SAFAS Monaco) or Cary 4000 spectrophotometer (Agilent). […]

[2] = test system: HIV-1 reference strain NL4-3; assay: BiCycle assay (MT-2 then TZM-bl cells); format: cell-based; settings: Human immunodeficiency virus 1, NL43, TZM-bl, read-out: BiCycle IC50 nM
Experimental: BiCycle Assay is cell based assay allowing the evaluation of the antiviral activity of HIV-1 inhibitors on the whole replication cycle of HIV-1. The assay consists in a first round of infection of the T-cell line MT-2 followed by infection of TZM-bl cells. MT-2 cells were seeded at a concentration of 50,000 cells/well in a 96-well plate and infected with the HIV-1 reference strain NL4-3 in presence of five-fold dilutions of the investigational compounds. After 72 hours, 50 µl of supernatant from each well, containing the virus produced in the first round of infection, were used to infect TZM-bl cells seeded in a 96-plate well at a concentration of 30,000 cells/well. Two days later, cells were lysed adding 40 µl of Glo Lysis Buffer (Promega) to each well for 5 minutes, then 40 µl of Brighy-Glo Luciferase Reagent (Promega) were added to each well for relative luminescence units (RLU) counting using Glo-Max Multi Detection System (Promega). RLU values from each well were elaborated using the GraphPad v5.0 software to calculate the IC50 of each compound.

HeLa cells = assay: HeLa Proliferation assay (CellTiter Glo); format: cell-based; settings: 72 hours
Experimental: HeLa cells (ATCC® CCL2™) in DMEM (Dulbecco Modified Eagle's Medium) without phenol red, Thermo, 11880, USA + 10% FBS + 1X PenStrep + 1X Gln or HUVEC cells (ATCC® CRL1730™) in EBM-2 (Endothelial Growth Basal Medium, Lonza, CC3156) + EGM-2 SingleQuotsTMSupplements and Growth Factors (Lonza, CC4176) + 1X Penicyllin-Streptomycin (PenStrep, ThermoFisher) + 1X Glutamine, are plated in a 384 well plate (Thermo, 4334-11, USA) to a density of 2000 cells per well and let recover for four hours at 37 °C, 5% CO2 in a humidified atmosphere. After the recovery, compounds are transferred to assay plates as per compound preparation method. Assay plates are then incubated at 37 °C, 5% CO2 in a humidified atmosphere for 72 hours. Cell viability is measured by the CellTiter Glo (Promega, G8080, USA) as per manufacturer instruction.

[3] = test system: Peripheral blood mononuclear cells (PBMC); format: cell-based; settings: human, 7 days
Experimental: Peripheral blood mononuclear cells (PBMC) obtained from healthy donors by separation over Ficoll-Hypaque (GEHealthear-Cat.# GEH17-1440-02) were suspended at 2x10^6 cells/mL in RPMI 1640 (Biowest-Cat.#L0501-500) supplemented with 10% of heat-inactivated sterile fetal bovine serum (Gibco-Cat.#10270-106), 2 mmol/l L-glutamine (Biowest-Cat.#X0550-100), 50 U/mL Penicillin-50 µg/mL Streptomycin (Biowest-Cat.#L0022-100), referred to as complete medium (CM). PBMC were supplemented with 5 µg/mL of phytohaemagglutinin (Sigma Aldr-Cat.#L1668) and cultured in 75 cm^2 flasks (Sarsted-Cat.#833.911.002) for 2 days at 37 °C in a humidified atmosphere with 5% CO2.
PBMC were then washed in CM, counted by trypan blue exclusion (Gibco-Cat. #15250-061), centrifuged and suspended in fresh CM supplemented with 20 IU/mL recombinant human IL-2 (Miltenyi Biotec-Cat.#130-097-748) and seeded in a 96-well-tissue culture plate (Sarsted-Ca#831.837) at the density of 5x10^5 cells/mL (or 1x10^5 cells in 200 µL final CM volume per well). Cells were left untreated (negative control) or treated with different concentrations of the compounds.
After 7 days of incubation cytotoxicity was determined using Promega's CellTiter 96(R) AQueous One Solution Cell Proliferation Assay (MTS assay) (Promega-Cat.#G3581) according to the manufacturer's instuctions. This is a colorimetric method for determining the number of viable cells in proliferation or cytotoxicity assays. The MTS tetrazolium compound is bioreduced by cells into a colored formazan product that is soluble in tissue culture medium. This conversion is presumably accomplished by NADPH or NADH produced by dehydrogenase enzymes in metabolically active cells.
Briefly, MTS solution was thawed at room temperature, or in a water bath at 37 °C and 40 µL of MTS solution was pipeted into each well of the 96-well assay plate containing the samples in 200 µL of culture medium and incubated at 37 °C, 5% CO2 for 4 hours. The optical density was read at 490 nm using a 96-well plate reader (Tecan Infinite F50) and TD50 (toxic dose 50%, dose killing 50% of the cells compared to untreated control) value was calculated by interpolation of the curve obtained by plotting dose against percent mortality and by using "Magellan data analysis software". CM alone plus MTS solution was used as a blank, and cell culture well without compound was used as a cellular control.

[4] = cTAR DNA 0.1 µM, 1 µM NC(11-55), 20 °C, pH 7.5, read-out: NC inhibition IC50

Structure (SMILES)	EMSA screening results [1]	IC50 (NC(11-55); [4]) [µM]	inhibition at 100 µM (NC(11-55)) [%]	IC50 [2] [nM]	Proliferation assay HELA TD50 (HeLa cells) [µM]	Proliferation assay PBMC TD50 [3] [nM]	IC50 (NC(11-55)) [µM]
C[C@@H](NC(=O)c1nc(-c2cc([N+](=O)[O-])ccn2)nc(O)c1O)C1CCCCC1 [Compound 40, (R)-N-(1-cyclohexylethyl)-5,6-dihydroxy-2-(4-nitropyridin-2-yl)pyrimidine-4-carboxamide]	Positive (A compound showing >25% inhibition when tested at 100µM concentration is considered as "positive")	6.35	> 25				
C[C@@H](NC(=O)c1nc(-c2ncccc2NC(=O)OC(C)(C)C)nc(O)c1O)C1CCCCC1 [Compound 42, tert-butyl (R)-(2-(4-((1-cyclohexylethyl)carbamoyl)-5,6-dihydroxypyrimidin-2-yl)pyridin-3-yl)carbamate]	Positive (A compound showing >25% inhibition when tested at 100µM concentration is considered as "positive")	14.5	> 25	1600			
C[C@@H](NC(=O)c1nc(-c2ccc(NC(=O)c3cnco3)cn2)nc(O)c1O)C1CCCCC1 [Compound 82, (R)-N-(6-(4-((1-cyclohexylethyl)carbamoyl)-5,6-dihydroxypyrimidin-2-yl)pyridin-3-yl)oxazole-5-carboxamide]	Positive (A compound showing >25% inhibition when tested at 100µM concentration is considered as "positive")	19.5	> 25		6.5308		
O=C(NC1(C2CCCCC2)CC1)c1nc(-c2cc3ccccc3cn2)nc(O)c1O [Compound 83, N-(1-cyclohexylcyclopropyl)-5,6-dihydroxy-2-(isoquinolin-3-yl)pyrimidine-4-carboxamide]	Positive (A compound showing >25% inhibition when tested at 100µM concentration is considered as "positive")		> 25				
C[C@@H](NC(=O)c1nc(-c2ccc(N3CCN(C)CC3)cn2)nc(O)c1O)C1CCCCC1 [Compound 94, (R)-N-(1-cyclohexylethyl)-5,6-dihydroxy-2-(5-(4-methylpiperazin-1-yl)pyridin-2-yl)pyrimidine-4-carboxamide]	Negative		> 25			740	18
CCNCc1ccnc(-c2nc(O)c(O)c(C(=O)N[C@H](C)C3CCCCC3)n2)c1 [Compound 95, (R)-N-(1-cyclohexylethyl)-2-(4-((ethylamino)methyl)pyridin-2-yl)-5,6-dihydroxypyrimidine-4-carboxamide]	Negative	28	> 25				
C[C@@H](NC(=O)c1nc(-c2cc(CNCc3ccccc3)ccn2)nc(O)c1O)C1CCCCC1 [Compound 96, (R)-2-(4-((benzylamino)methyl)pyridin-2-yl)-N (1-cyclohexylethyl)-5,6-dihydroxypyrimidine-4-carboxamide]	Negative		> 25				
